The record followed here is patent US10537552B2, “Substituted 5-hydroxyoxindoles and their use as analgesics and fever reducers” (CARAFE DRUG INNOVATION, LLC, priority 2015, dated 2020).

In data set [1] the test system is acetic acid-induced behavioral response. Nature of the data set: abdominal constriction response test (acetic acid), Example 9. The class given is in vivo. To be noted: B6C3F1 mice, FIG. 1; for inhibition of acetic acid-induced behavioral response: p.o. 30 min before i.p. 0.9% acetic acid, DMSO/2% methylcellulose, acetaminophen 75 to 300 mg/kg. The procedure:
The example was performed to compare the antinociception (animal equivalent of analgesia) produced by the oral administration of 5-hydroxyoxindole vs acetaminophen in a standard model in mice. Male B6C3F1 mice (Taconic), 8-10 weeks of age were utilized. The mice were received at the facility at least one week prior to testing and housed in standard polycarbonate cages with filter tops. The experiments were done in accordance with the guidelines of the National Institutes of Health (NIH) and with the guidelines of the Committee for Research and Ethical Issues of the IASP (International Association for the Study of Pain) and were approved by the Institutional Animal Care and Use Committee (IACUC) of Taconic Laboratories. Four or five animals were housed per cage and food and water were provided ad libitum. Prior to initiation of the study, the mice were examined to assure adequate health and suitability. They were maintained on a 12 h/12 h light/dark cycle and room temperature was maintained between 20 and 23° C. with a relative humidity maintained between 30 and 70%. All compounds were tested in naïve animals. All compounds were administered orally 10 mL/kg, with a 30 minute pretreatment time. Each compound was dissolved in DMSO as a stock solution and mixed with methylcellulose (2%) before testing. Each compound was initially tested in five mice at a dose of 300 mg/kg in the abdominal constriction response test (Collier, British Journal of Pharmacology and Chemotherapy 32(2): 295-310, 1968). Based upon the results of the initial test, the dose-response relationship for each active compound was determined by measuring the level of analgesia produced by at least 3 escalating doses of the test compound. […] Vehicle or test compound was administered p.o. (per os) 30 min prior to an intraperitoneal (i.p.) injection of 0.9% acetic acid (10 mL/kg) and the number of responses (stretching of the hind limbs accompanied by a contraction of the abdominal muscles) to the acetic acid injection were counted over the subsequent 30 min period. […]

The subject of data set [2] is acetic acid-induced writhing responses. Nature of the data set: acetic acid writhing test (abdominal irritant test), Example 10. Type of data set: in vivo, C57/B16 mice. The conditions noted are these: C57/B16 mice. Here is the method:
This example compares the antinociception (animal equivalent of analgesia) produced by the oral administration of 5-hydroxy-7-methyloxindole vs. acetaminophen. Initial studies were performed using 10% DMSO/Cremophor™ as the vehicle. To enable a comparison with other datasets, 5-hydroxy-7-methyloxindole was subsequently tested using 6% Tween 20® reagent as the vehicle.
Male C57/B16 mice (Taconic), 8 weeks of age, were used in this study. The mice were received at Drexel University at least one week prior to testing and housed in standard polycarbonate cages with filter tops. Experiments were done in accordance with the guidelines of the National Institutes of Health and with the guidelines of the Committee for Research and Ethical Issues of IASP and were approved by the Animal Care and Use Committee of Drexel University College of Medicine. Four to five animals were housed per cage and food and water were provided ad libitum. Prior to initiation of the study, the animals were examined to assure adequate health and suitability. Mice were maintained on a 12/12 light/dark cycle and room temperature was maintained between 20 and 23° C. with a relative humidity maintained between 30% and 70%.
Compounds were administered orally 10 mL/kg, with a 30 minute pretreatment time. All compounds were tested in naïve animals. Each compound was dissolved in DMSO as a stock solution and mixed with Cremophor™ (1:1 v/v) before testing. The mixed solutions were diluted 1:4 with sterile water (the final concentration of DMSO/Cremophor™ reagent was 10%) immediately before administration to maximize the amount of compound in solution and improve the uniformity of any compound substance remaining in suspension. It is possible that some of the drug was in suspension at the time of administration. Each compound was initially tested in 5 mice at a dose of 300 mg/kg in the writhing test to assess their ability to alleviate abdominal pain. Based on the results of the initial test, the dose-response relationship for each active compound was determined by measuring the level of analgesia produced by at least 3 escalating doses of the test compound. The measurement of inhibition of writhing for acetaminophen and 5-hydroxy-7-methyloxindole were repeated using 6% Tween® 20 reagent as the vehicle. In this case, both compounds were clearly in suspension when administered to the animals.
A modified version of the standard abdominal irritant test was used to assess analgesia. Mice were habituated for 1 h in a transparent test box (5×5×10 inches) before any injections. Vehicle or test compound was administered p.o. (per os) 30 min prior to an intraperitoneal (i.p.) injection of 0.6% acetic acid (10 mL/kg) and the number of writhing responses (stretching of the hind limbs accompanied by a contraction of the abdominal muscles) to the acetic acid injection were counted over the subsequent 30 min period. The mice from each cage were randomly assigned to the dosing groups and the mice from each group were injected in a random order.
The one-way ANOVA was used to determine significant difference from the vehicle control treated animal. Dose response data for 5-hydroxy-7-methyloxindole was fit by non-linear regression analysis to a logit model to provide an estimate of ED50.
A general note: Writhing tests count abdominal constrictions after an irritant is injected.

The subject of data set [3] is liver (acute liver toxicity). Kind of data set: liver histology (pathohistological examination). Type of data set: in vivo, C57BL/6 mice. To be noted: mouse, in vivo. Here is the method: In all experiments, mice were fasted overnight and then allocated randomly to receive either acetaminophen or equimolar dose of 5-hydroxy-7-methyloxindole by the intragastric route. Food was returned 4 h after the treatment. The two experimental groups were:
(a) Lower-dose group: Mice were administered acetaminophen (300 mg/kg) or 5-hydroxy-7-methyloxindole (324 mg/kg). After 7 h, the mice were sacrificed and liver and blood samples were taken for the analysis.
Seven hours after receiving the second injection, mice were sacrificed and liver and blood samples were taken for analysis.
A portion of the liver lobes of each mouse was fixed in 4% buffered paraformaldehyde, dehydrated in increasing concentrations of ethanol, and embedded in paraffin. Then, sections of tissue were cut to […] thickness using a rotary microtome, stained with hematoxylin and eosin, and then analyzed under a microscope.

`O=C1Cc2cc(O)ccc2N1` [Example 5-HI, 5-hydroxyoxindole]: the “inhibition of acetic acid-induced behavioral response” value in data set [1] is “statistically significant, dose-related inhibition”. Moreover, in data set [1] (p.o.), the “dose needed for same analgesic efficacy as acetaminophen” value is “higher doses of 5-HI were required”.
In the case of `CC(=O)Nc1ccc(O)cc1` [acetaminophen, N-(4-Hydroxyphenyl)acetamide, reference compound], the “inhibition of acetic acid-induced response (writhing)” value in data set [2] (p.o. 30 min before i.p. 0.6% acetic acid, 10% DMSO/Cremophor vehicle, 30 to 300 mg/kg, FIG. 2, 3) is “robust and dose-related inhibition”; in data set [2] (p.o., 6% Tween 20 vehicle (suspension), 100 and 300 mg/kg, FIG. 5, 6), “Only a 300 mg/kg dose produced significant inhibition”. Besides, the “liver injury on pathohistological examination” value in data set [3] is recorded as “acute liver injury in all of the mice”. The “inhibition of acetic acid-induced behavioral response” value in data set [1] was “robust and dose-related inhibition”.
